Test results as given in article PMC12147183, “Lacritin cleavage-potentiated targeting of iron - respiratory reciprocity promotes bacterial death” (The Journal of Biological Chemistry, 2025).
Peptide text beside a SMILES is read from it.

Columns and labels:
wild-type E. coli K-12 = assay: Alamar Blue viability assay of wild-type E. coli K-12; format: cell-based, Escherichia coli; conditions: 100 μM, wild-type E. coli K-12 10^6 cfu/ml, 37 °C, hourly, n = 3
[1] = system: Keio E. coli K-12 single gene knockout strains; assay: Forward genetic N-104 resistance screen of Keio single gene knockouts; format: cell-based, Escherichia coli; conditions: 100 μM N-104, slope 5 h after/5 h before; resistance cutoff 0.75
Experimental: We took advantage of the Alamar Blue viability assay ([85]). Briefly, wells of deep 96-well plates (1896–2000, USA Scientific) each containing 0.8 ml of LB broth supplemented with 50 μg/ml of kanamycin (BP906–5, Fisher Scientific) were singly inoculated with 10 μl aliquots of each of the 3884 Keio E. coli K-12 single gene knockout strains for 16 h at 37 °C on a rotator (160 rpm). A total of 200 μl of a 1:1000 dilution of each (∼10^6 cfu/ml) in 1 mM Na2HPO4, 0.18 mM KH2PO4, 0.27 mM KCl, 13.7 mM NaCl (pH 7.2) containing 10% Alamar Blue (DAL1100, Invitrogen) in wells of black 96-well plates was monitored hourly for 5 h in a SpectraMax M3 plate reader (Molecular Devices) with 3 s agitation before simultaneously reading from the well bottoms at medium PMT voltage with a 590 nm cutoff filter and six flashes per read for the Alamar Blue fluorescence signal (excitation/detection = 560/590 nm). The same hourly monitoring continued for 30 h after the addition of N-104, N-80/C-25 (negative control), or ampicillin (positive control; BP1760–5; Fisher Scientific) at a final concentration of 100 μM each. Data for each of the 3,884 strains were normalized to untreated with 10% Alamar Blue background subtracted as the ratio of the viability slope during the first 5 hours of N-104 treatment versus the slope 5 h previous.

PA14 transcriptome = assay: RNAseq of N-104 treated PA14; format: cell-based, Pseudomonas aeruginosa; conditions: 20 μM N-104 versus N-80/C-25, 45 min at 35 °C, 5 × 10^8 cfu/ml
Experimental: For RNA extraction and sequencing of P. aeruginosa, we used diethylpyrocarbonate (DEPC) treated Eppendorf tubes (except for those used for synthetic peptide incubation). An aliquot of PA14 overnight culture grown for 3.5 to 4.0 h in LB broth to OD600 = 0.5 (5.0 × 10^8 cells) was gently pelleted (12,000g, 30 s), resuspended in 0.5 ml of 1 mM Na2HPO4, 0.18 mM KH2PO4, 0.27 mM KCl, 13.7 mM NaCl (pH 7.2) and incubated with five or 20 μM N-104, or 20 μM N-80/C-25 for 45 min at 35 °C or left untreated. After pelleting (12,000g, 5 min), cells were resuspended in 0.5 ml of TE buffer supplemented with 1 ml of RNA-protect Bacteria Reagent with 5 s of vortexing prior to incubation for 5 min at room temperature, pelleting (5000g, 10 min), and lysis initiated in 200 μl of 15 mg/ml lysozyme together with 20 μl of 2.5 mg/ml proteinase K, both in TE buffer. […] Library construction and sequencing were performed by UVA's Genome Analysis and Technology Core involving mRNA enrichment via the NEBNext rRNA Depletion Kit (Bacteria), and transcriptome sequencing on a Next Seq 500 Mid Output platform, with 150-bp paired-end reads. The range of raw reads for each sample varied from 8 to 10 million, thus ensuring an optimal depth of sequencing that was analyzed by UVA's Bioinformatics Core facility.

P. aeruginosa PA14 = assay: SYTOX Orange PA14 membrane disruption assay; conditions: 25 μM peptide, PA14 10^7 cfu/ml, 1 h at 35 °C, 5 μM SYTOX Orange; positive control 70% ethanol
[2] = Surface plasmon resonance on chip-supported Gram-negative model membrane

CC(=O)N[C@@H](C)C(=O)N[C@@H](CCC(N)=O)C(=O)N[C@@H](CCCCN)C(=O)N[C@@H](CC(C)C)C(=O)N[C@@H](CC(C)C)C(=O)N[C@@H](CCCCN)C(=O)N[C@@H](CCCCN)C(=O)N[C@@H](Cc1ccccc1)C(=O)N[C@@H](CO)C(=O)N[C@@H](CC(C)C)C(=O)N[C@@H](CC(C)C)C(=O)N[C@@H](CCCCN)C(=O)N1CCC[C@H]1C(=O)N[C@@H](Cc1c[nH]c2ccccc12)C(=O)N[C@@H](C)C(=O)O [N-104] (Ac-AQKLLKKFSLLKPWA-OH)
bacterial metabolic activity (Alamar Blue) (wild-type E. coli K-12): inhibitory | treated:untreated metabolic slope ratio, ΔSbmA E. coli [1]: 0.69 | treated:untreated metabolic slope ratio, ΔYaiW E. coli [1]: 0.70 | effect on PA14 respiratory gene expression (PA14 transcriptome): promotes the expression of genes regulating anaerobic respiration while largely suppressing those involved in aerobic respiration | membrane disruption (SYTOX Orange uptake) (P. aeruginosa PA14): no SYTOX Orange uptake was observed | membrane lysis or disruption concluded from SPR ([2]; 2-25 μM N-104, PC:PG:PE and PC:PG membranes): not membrane lytic nor substantially membrane disruptive | SPR response after buffer wash versus baseline ([2]; highest N-104 concentration (25 μM), flow 30 μl/min, 600 s, n = 4): remained slightly elevated over baseline
